Each structure is given as a SMILES string. Read-outs that look alike come from different tables or passages of the source.

Assay type in all cases: biochemical
The nature of assay [1]: PI 3-Kinase (human) HTRF assay, p110δ/p85α. As to conditions: read-out: PI3K γ IC50. On the technique in general: TR-FRET usually uses a lanthanide donor and a delayed reading to cut background.
Description: (§1) An exemplary system is PI 3-Kinase (human) HTRF™ Assay from Upstate. […] Briefly, the assay is a time resolved FRET assay that indirectly measures PIP3 product formed by the activity of a PI3-K. The kinase reaction is performed in a microtitre plate (e.g., a 384 well microtitre plate). The total reaction volume is approximately 20 ul per well. In the first step, each well receives 2 ul of test compound in 20% dimethylsulphoxide resulting in a 2% DMSO final concentration. Next, approximately 14.5 ul of a kinase/PIP2 mixture (diluted in 1× reaction buffer) is added per well for a final concentration of 0.25-0.3 ug/ml kinase and 10 μM PIP2. The plate is sealed and incubated for 15 minutes at room temperature. To start the reaction, 3.5 ul of ATP (diluted in 1× reaction buffer) is added per well for a final concentration of 10 μM ATP. The plate is sealed and incubated for 1 hour at room temperature. The reaction is stopped by adding 5 ul of Stop Solution per well and then 5 ul of Detection Mix is added per well. The plate is sealed, incubated for 1 hour at room temperature, and then read on an appropriate plate reader. Data is analyzed and IC50s are generated using GraphPad Prism 5. For PI3K α, β, δ, and γ, the nM concentration of inhibitor to reach IC50 is provided.
The target in another assay is PI3K β (Homo sapiens (Human), UniProt P42338). Put plainly: PI 3-Kinase (human) HTRF assay, p110β/p85α.
PI3K β, sequence (P42338 whole entry): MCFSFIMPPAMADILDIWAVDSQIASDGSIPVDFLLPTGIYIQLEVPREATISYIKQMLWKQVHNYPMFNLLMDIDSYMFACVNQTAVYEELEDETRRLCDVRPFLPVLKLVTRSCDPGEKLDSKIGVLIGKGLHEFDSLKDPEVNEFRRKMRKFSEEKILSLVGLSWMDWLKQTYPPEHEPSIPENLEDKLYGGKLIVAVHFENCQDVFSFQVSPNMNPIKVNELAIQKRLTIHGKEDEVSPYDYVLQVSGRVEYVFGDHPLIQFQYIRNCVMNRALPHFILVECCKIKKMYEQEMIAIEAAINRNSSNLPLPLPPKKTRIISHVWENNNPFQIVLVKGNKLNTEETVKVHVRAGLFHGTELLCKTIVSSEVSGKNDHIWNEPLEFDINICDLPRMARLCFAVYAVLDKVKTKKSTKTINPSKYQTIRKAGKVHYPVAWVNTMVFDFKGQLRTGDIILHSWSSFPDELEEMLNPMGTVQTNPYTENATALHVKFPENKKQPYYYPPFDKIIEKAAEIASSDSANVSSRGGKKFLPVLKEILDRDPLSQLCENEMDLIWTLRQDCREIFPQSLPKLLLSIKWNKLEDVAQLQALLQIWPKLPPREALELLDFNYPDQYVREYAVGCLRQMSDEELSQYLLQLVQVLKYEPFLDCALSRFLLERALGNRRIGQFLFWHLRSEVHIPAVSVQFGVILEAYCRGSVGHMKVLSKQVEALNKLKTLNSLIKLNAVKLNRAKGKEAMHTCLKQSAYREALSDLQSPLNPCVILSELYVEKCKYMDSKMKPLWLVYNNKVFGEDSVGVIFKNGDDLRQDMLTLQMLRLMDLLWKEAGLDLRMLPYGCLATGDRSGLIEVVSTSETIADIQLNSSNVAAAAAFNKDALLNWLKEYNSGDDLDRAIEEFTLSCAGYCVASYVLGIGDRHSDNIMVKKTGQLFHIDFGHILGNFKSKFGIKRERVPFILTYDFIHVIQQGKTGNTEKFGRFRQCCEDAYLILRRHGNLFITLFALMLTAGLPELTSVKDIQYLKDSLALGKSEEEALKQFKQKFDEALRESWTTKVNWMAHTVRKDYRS
PI3K β, sequence (P27986 whole entry partner): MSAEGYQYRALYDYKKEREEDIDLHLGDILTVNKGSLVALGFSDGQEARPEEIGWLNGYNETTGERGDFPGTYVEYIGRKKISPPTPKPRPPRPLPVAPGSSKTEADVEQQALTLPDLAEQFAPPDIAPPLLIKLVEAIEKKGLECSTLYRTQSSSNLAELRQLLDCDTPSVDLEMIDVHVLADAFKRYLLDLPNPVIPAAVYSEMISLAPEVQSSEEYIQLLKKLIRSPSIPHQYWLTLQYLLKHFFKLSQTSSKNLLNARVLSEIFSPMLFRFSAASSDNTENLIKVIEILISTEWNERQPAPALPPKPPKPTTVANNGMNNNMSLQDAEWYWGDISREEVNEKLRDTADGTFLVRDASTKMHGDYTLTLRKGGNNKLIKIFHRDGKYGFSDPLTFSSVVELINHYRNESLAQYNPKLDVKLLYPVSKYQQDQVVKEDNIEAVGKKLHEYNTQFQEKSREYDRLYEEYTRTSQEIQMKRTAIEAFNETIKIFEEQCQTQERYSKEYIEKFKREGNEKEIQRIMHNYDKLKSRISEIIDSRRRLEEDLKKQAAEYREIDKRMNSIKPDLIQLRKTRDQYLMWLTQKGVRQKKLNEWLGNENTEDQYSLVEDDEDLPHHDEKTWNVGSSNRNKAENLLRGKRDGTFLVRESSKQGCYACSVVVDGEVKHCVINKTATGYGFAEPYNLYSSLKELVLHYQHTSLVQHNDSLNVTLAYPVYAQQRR
A further assay deals with mTORC (Homo sapiens (Human), UniProt P42345). Kind of assay: mTOR inhibition assay (radiometric or LanthaScreen TR-FRET).
mTORC, sequence (P42345 1360-2549): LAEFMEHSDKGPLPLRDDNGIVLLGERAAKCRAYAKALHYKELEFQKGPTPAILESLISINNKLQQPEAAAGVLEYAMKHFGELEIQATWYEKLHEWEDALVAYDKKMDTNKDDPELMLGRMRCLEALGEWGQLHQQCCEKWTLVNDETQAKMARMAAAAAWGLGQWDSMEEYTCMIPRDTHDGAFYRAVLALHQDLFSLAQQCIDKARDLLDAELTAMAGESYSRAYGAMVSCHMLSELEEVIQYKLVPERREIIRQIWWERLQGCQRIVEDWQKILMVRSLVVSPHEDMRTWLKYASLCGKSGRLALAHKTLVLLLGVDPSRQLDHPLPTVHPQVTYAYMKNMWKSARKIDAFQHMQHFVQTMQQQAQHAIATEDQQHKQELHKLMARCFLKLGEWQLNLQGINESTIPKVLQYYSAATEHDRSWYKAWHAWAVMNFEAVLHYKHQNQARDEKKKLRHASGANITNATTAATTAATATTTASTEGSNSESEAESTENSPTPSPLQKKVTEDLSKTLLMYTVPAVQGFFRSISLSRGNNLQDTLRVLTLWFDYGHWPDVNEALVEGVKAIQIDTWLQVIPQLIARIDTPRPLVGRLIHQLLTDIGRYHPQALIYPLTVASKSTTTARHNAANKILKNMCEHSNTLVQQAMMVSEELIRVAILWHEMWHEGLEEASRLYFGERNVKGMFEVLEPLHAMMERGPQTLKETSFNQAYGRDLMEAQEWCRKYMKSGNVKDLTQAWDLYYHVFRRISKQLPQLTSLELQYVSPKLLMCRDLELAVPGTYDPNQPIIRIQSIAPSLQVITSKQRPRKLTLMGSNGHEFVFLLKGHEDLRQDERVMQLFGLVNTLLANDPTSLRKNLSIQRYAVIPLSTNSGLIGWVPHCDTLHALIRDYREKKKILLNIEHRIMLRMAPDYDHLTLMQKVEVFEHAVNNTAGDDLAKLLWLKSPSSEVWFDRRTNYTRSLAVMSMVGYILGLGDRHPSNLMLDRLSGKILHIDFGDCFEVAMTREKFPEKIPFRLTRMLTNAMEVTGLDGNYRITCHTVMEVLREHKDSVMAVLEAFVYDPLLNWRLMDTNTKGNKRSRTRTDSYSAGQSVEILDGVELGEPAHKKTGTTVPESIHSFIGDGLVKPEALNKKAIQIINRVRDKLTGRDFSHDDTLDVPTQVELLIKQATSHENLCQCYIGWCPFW
A further assay deals with PI3K α (Homo sapiens (Human), UniProt P42336). Put plainly: PI 3-Kinase (human) HTRF assay, p110α/p85α.
PI3K α, sequence (P42336 whole entry): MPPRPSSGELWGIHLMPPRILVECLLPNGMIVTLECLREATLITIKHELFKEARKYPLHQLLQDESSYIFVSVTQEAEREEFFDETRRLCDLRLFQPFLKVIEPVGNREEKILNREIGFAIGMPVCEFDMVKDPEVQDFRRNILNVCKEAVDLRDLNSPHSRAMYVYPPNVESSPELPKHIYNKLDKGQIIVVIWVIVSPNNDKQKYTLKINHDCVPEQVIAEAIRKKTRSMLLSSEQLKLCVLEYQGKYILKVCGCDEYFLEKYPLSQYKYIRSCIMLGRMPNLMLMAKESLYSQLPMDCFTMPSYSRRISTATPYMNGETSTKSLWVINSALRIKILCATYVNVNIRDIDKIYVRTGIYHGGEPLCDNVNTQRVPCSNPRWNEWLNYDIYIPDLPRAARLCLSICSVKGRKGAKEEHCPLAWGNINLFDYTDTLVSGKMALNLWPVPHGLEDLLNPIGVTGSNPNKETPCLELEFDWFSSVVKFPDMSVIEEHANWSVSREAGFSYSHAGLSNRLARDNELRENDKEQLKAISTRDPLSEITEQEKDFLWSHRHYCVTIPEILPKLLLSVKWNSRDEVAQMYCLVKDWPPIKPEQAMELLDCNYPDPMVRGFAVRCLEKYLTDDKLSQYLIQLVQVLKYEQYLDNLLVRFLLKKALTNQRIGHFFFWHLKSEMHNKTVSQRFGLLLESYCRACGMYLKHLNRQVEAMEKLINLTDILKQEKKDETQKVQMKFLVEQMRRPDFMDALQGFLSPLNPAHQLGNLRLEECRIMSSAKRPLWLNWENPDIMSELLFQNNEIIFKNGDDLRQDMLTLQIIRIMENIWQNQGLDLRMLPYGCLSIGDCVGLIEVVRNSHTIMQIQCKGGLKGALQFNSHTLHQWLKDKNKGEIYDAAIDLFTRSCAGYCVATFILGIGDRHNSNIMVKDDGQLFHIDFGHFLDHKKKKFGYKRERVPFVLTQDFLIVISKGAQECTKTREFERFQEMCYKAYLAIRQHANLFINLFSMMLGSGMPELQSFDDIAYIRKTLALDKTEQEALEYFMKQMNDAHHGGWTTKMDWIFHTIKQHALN
PI3K α, sequence (P27986 whole entry partner): as the sequence (P27986 whole entry partner) above
Another assay deals with PI3K γ (Homo sapiens (Human), UniProt P48736). Put plainly: PI 3-Kinase (human) HTRF assay, p110γ.

Description for PI3K β: as §1
Description for PI3K γ: as §1

For `Nc1nc2cc(-c3ccc4ncc(N5CC(N6CCN(CC7CC7)CC6)C5)nc4c3)ccc2o1`, the IC50 in assay [1] was under 10 µM; on PI3K β, under 10 µM; at mTORC, over 10 µM; on PI3K α, under 0.1 µM; on PI3K γ (read-out: PI3K δ IC50) it was over 10 µM.
Take `CC(=O)N1CCN(C2CN(c3cnc4ccc(-c5ccc6oc(N)nc6c5)cc4n3)C2)CC1`: the IC50 in assay [1] was under 1 µM; against PI3K β, under 10 µM; on mTORC, over 10 µM; on PI3K α it was under 0.1 µM; at PI3K γ (read-out: PI3K δ IC50), under 1 µM.
As for `CCN1CCN(C2CN(c3cnc4ccc(-c5ccc6oc(N)nc6c5)cc4n3)C2)CC1`, the IC50 in assay [1] was under 1 µM; against PI3K β, under 1 µM; at mTORC it was over 10 µM; on PI3K α, under 0.1 µM; on PI3K γ (read-out: PI3K δ IC50) it was under 10 µM.
In the case of `CN1CCN(C2CN(C(=O)c3cnc4ccc(-c5ccc6oc(N)nc6c5)cn34)C2)CC1`, the IC50 in assay [1] is under 10 µM; at PI3K β, over 10 µM; against mTORC, under 10 µM; against PI3K α, under 0.1 µM; on PI3K γ (read-out: PI3K δ IC50), over 10 µM.
Consider `CN1CCN([C@@H]2CCN(c3cnc4ccc(-c5ccc6oc(N)nc6c5)cc4n3)C2)CC1`, for which the IC50 in assay [1] was under 10 µM; against PI3K β, under 1 µM; on mTORC it was under 10 µM; at PI3K α it was under 0.1 µM; on PI3K γ (read-out: PI3K δ IC50), over 10 µM.
With `CC1(C)CN(C2CN(c3cnc4ccc(-c5ccc6oc(N)nc6c5)cc4n3)C2)CCN1`, the IC50 was under 1 µM in assay [1]; under 1 µM on PI3K β; under 0.1 µM on mTORC; under 0.1 µM on PI3K α; under 1 µM on PI3K γ (read-out: PI3K δ IC50).
As to `Nc1nc2cc(-c3ccc4ncc(N5CC(n6cccn6)C5)nc4c3)ccc2o1`, the IC50 in assay [1] is over 10 µM; against PI3K β, under 10 µM; against mTORC, under 1 µM; at PI3K α, under 0.1 µM; at PI3K γ (read-out: PI3K δ IC50), under 10 µM.
Take `CS(=O)(=O)N1CCN(C2CN(c3cnc4ccc(-c5ccc6oc(N)nc6c5)cc4n3)C2)CC1`: the IC50 in assay [1] was under 10 µM; against PI3K β, under 10 µM; against mTORC, over 10 µM; on PI3K α, under 0.1 µM; on PI3K γ (read-out: PI3K δ IC50), under 10 µM.
On to `C[C@@H]1CN(c2cnc3ccc(-c4ccc5oc(N)nc5c4)nc3c2)CCN1`, for which the IC50 against PI3K β was under 1 µM; against mTORC, over 10 µM; at PI3K α, under 0.1 µM; on PI3K γ (read-out: PI3K γ IC50), under 10 µM.
With `C[C@@H]1CN(C2CN(c3cnc4ccc(-c5ccc6oc(N)nc6c5)nc4n3)C2)CCN1`, the IC50 against PI3K β was over 10 µM; on mTORC it was over 10 µM; at PI3K α, under 0.1 µM; on PI3K γ (read-out: PI3K γ IC50), over 10 µM.
On to `COC(=O)N1CCC(n2ncc3c(N4CCOCC4)nc(-c4ccc5oc(N)nc5c4)nc32)CC1`, for which the IC50 is over 10 µM in assay [1]; under 10 µM at PI3K β; under 1 µM at mTORC; under 1 µM against PI3K α; over 10 µM at PI3K γ (read-out: PI3K δ IC50).
As for `Nc1ncc2cc(-c3ccc4nccc(-c5ccncc5)c4c3)ccc2n1` [Compound 9], the IC50 against PI3K β is under 10 µM; against mTORC, over 10 µM; against PI3K α, under 1 µM; at PI3K γ (read-out: PI3K γ IC50), under 1 µM.
As for `Nc1nc2cc(-c3ccc4oc(N)nc4c3)ccc2o1`, the IC50 was under 10 µM in assay [1], under 10 µM against mTORC, under 1 µM at PI3K α and under 0.1 µM on PI3K γ (read-out: PI3K δ IC50).
As to `Nc1nc2cc(-c3ccc4nc(N)oc4c3)ccc2o1`, the half-maximal inhibitory concentration (IC50) in assay [1] is under 1 µM; against mTORC it was under 10 µM; at PI3K α, under 1 µM; at PI3K γ (read-out: PI3K δ IC50), under 0.1 µM.
With `Nc1nc2cc(-c3cccc4[nH]nc(N)c34)ccc2o1`, the IC50 against PI3K β, at mTORC, against PI3K α and on PI3K γ (read-out: PI3K δ IC50) was over 10 µM in each case.
In the case of `Nc1ncnc2ccc(-c3ccc4nccc(-c5ccncc5)c4c3)cc12` [Compound 8], the IC50 is over 10 µM on PI3K β, over 10 µM at mTORC, under 10 µM against PI3K α and under 1 µM at PI3K γ (read-out: PI3K γ IC50).

Broadly, the IC50 is the midpoint of a concentration-inhibition curve.

(Values after patent US9682141B2, “Combination of kinase inhibitors and uses thereof” (INTELLIKINE LLC, priority 2011, dated 2017).)
